# Key:
# [1] = molecular target: T1, amyloid (aggregated Aβ1-42) (Homo sapiens, UniProt P05067); assay: Measurement of affinity with amyloid (inhibition of [125I]3′-I-BTA-0 binding), Example II-7; settings: [125I]3′-I-BTA-0 400 pmol/L, amyloid 1 μmol/L, 1% bovine serum albumin-containing phosphate buffer (pH 7.4)
# T1 construct: Aβ1-42 (Wako) was dissolved in phosphate buffer (pH 7.4); purchased Wako
# Source text: Then, each sample solution was filtered through a glass fiber filter (trade name: Mulutiscreen™-FC, manufactured by Millipore), to separate the [^125I]3′-I-BTA-0 attached to amyloid from the free [^125I]3′-I-BTA-0.
# The measured radioactivity level was defined as the background radioactivity level, and used in the calculation of the inhibition ratio (hereinafter referred to as BG).
# A graph in which values converted by probit transformation from the obtained inhibition ratios were plotted relative to logarithms of concentrations of compounds for evaluation was prepared to obtain an approximate straight line by the least square method.
# [2] = Transferability into brain and clearance (2), Example I-30; type: in vivo, male Wistar rats; settings: rats, intravenous injection, Table 1-10
# Procedure: 0.05 mL each of these solutions was injected under thiopental anesthesia into the tail vein of respective Wistar rats (7-week old). The rats were sacrificed by bleeding from abdominal artery, and brains were removed and subjected to measurement of mass of brains and further subjected to measurement of radioactivity (hereinafter referred to as A in this Example) with a single channel analyzer (detector type: SP-20 manufactured by OHYO KOKEN KOGYO Co., Ltd.) 2, 5, 30 and 60 minutes after the injection. Also, radioactivity (hereinafter referred to as B in this Example) of the rest of the whole body was measured in the same manner as above. Using these measurement results, radioactive distribution per unit weight of brain (% ID/g) at the respective time points were calculated in accordance with the following formula (1-7).
# Three animals were used for experiment at the respective time points.
# [3] = test system: intracerebral amyloid (aggregated Aβ1-42 injected into amygdaloid nucleus); assay: Confirmation of imaging of amyloid in brain (ex vivo autoradiogram), Example I-31; design: species or system male Wistar rat
# Procedure: (§2) (1) Aβ1-42 (Wako) was dissolved in phosphate buffer (pH 7.4) and shaken at 37° C. for 72 hours, to obtain a 1 mg/mL suspension of aggregated Aβ (hereinafter referred to as amyloid suspension in this Example).
# (§3) (2) 2.5 μL (corresponding to 25 μg) of the amyloid suspension was injected into an amygdaloid nucleus on one side of a male Wistar rat (7-week old). As a control, 2.5 μL of a phosphate buffered physiological saline solution (pH 7.4) was injected into an amygdaloid nucleus on the other side of the rat. The rats were examined 1 day after the injection of the amyloid suspension and the phosphate buffered physiological saline solution (pH 7.4).
# (§4) This solution was injected under thiopental anesthesia into the rat through the tail vein (dosage: 0.5 mL, dosed radioactivity: 11-15 MBq equivalent).
# (§5) (4) Brain was removed 60 minutes after the injection to prepare a brain slice of 10 μm in thickness with a microtome (type: CM3050S, manufactured by LEICA). The brain slice was exposed to an imaging plate for 20 hours, and then image analysis was carried out by use of a Bio-imaging Analyzer (type: BAS-2500; manufactured by FUJIFILM Corporation).
# [4] = molecular target: T2, intracerebral amyloid (aggregated Aβ1-42 injected into amygdaloid nucleus) (Homo sapiens, UniProt P05067); assay: as above; design: species or system male Wistar rat; settings: brain slice 60 minutes after tail vein injection
# T2 construct: Aβ1-42 (Wako) was dissolved in phosphate buffer (pH 7.4); purchased Wako
# Procedure: as §2, §3, §4, §5
# [5] = test system: intracerebral amyloid (aggregated Aβ1-40 injected into amygdaloid nucleus); assay: Confirmation of imaging of amyloid in brain (ex vivo autoradiogram), Example I-22; design: species or system male Wistar rat; settings: brain slice 60 minutes after tail vein injection
# Procedure: (§6) (1) Aβ1-40 (manufactured by Peptide Institute, INC.) was dissolved in phosphate buffer (pH 7.4) and shaken at 37° C. for 72 hours, to obtain 1 mg/mL of a suspension of aggregated Aβ (hereinafter referred to as amyloid suspension in this Example).
# (§7) (2) 25 μL (corresponding to 25 μg) of the amyloid suspension was injected into an amygdaloid nucleus on one side of a male Wistar rat (7-week old). As a control, 25 μL of a phosphate buffered physiological saline solution (pH 7.4) was injected into an amygdaloid nucleus on the other side of the rat. The rats were examined 1 day after the injection of the amyloid suspension and the phosphate buffered physiological saline solution (pH 7.4).
# (§8) This solution was injected into the rat through the tail vein (dosage: 0.5 mL, dosed radioactivity: 16 MBq equivalent).
# as §5
# [6] = molecular target: T3, intracerebral amyloid (aggregated Aβ1-40 injected into amygdaloid nucleus) (Homo sapiens, UniProt P05067); assay: as above; design: species or system male Wistar rat; settings: brain slice 60 minutes after tail vein injection
# T3 construct: Aβ1-40 (Peptide Institute, INC.) was dissolved in phosphate buffer (pH 7.4); purchased Peptide Institute, INC
# Procedure: as §6, §7, §8, §5
# [7] = Transferability into brain and clearance, Examples I-20 to I-21; type: in vivo, male Wistar rats; settings: rats, intravenous injection, Table 1-7
# Source text: Three animals were used for Experiment I-20 and Comparative Experiment I-9, and two animals were used for Experiment I-21 at the respective time points.
# [8] = Transferability into brain and clearance, Examples II-10 to II-11; type: in vivo, male Wistar rats; settings: rats, intravenous injection, Table 2-5
# Procedure: 0.05 mL each of the prepared sample solutions was injected under thiopental anesthesia into the tail vein of the rats. The rats were sacrificed by bleeding from abdominal artery, and brains were removed and subjected to measurement of mass of brains and further subjected to measurement of radioactivity (hereinafter referred to as A in this Example) with a single channel analyzer (detector type SP-20 manufactured by OHYO KOKEN KOGYO Co., Ltd.) 2, 5, 30, and 60 minutes after the injection. Further, the radioactivity level of the rest of the whole body was measured in the same manner as above (hereinafter referred to as B in this Example). Using these measurement results, radioactive distribution per unit weight of brain (% ID/g) at the respective time points were calculated in accordance with the following formula (2-3).
# (§9) Three animals were used for the experiment at the respective time points.
# [9] = Partition coefficient based on the octanol extraction method, Examples II-8 to II-9; type: physicochemical; settings: octanol / 10 mmol/L phosphate buffer (pH 7.4); Table 2-4
# Procedure: To 2 mL of octanol, 10 μL each of the prepared sample solutions was added, 2 mL of 10 mmol/L phosphate buffer (pH 7.4) was added, followed by stirring for 30 seconds. After the mixture was centrifuged with a low-speed centrifuge (2000 rpm×60 min.), the octanol layer and the water layer were sampled each in an amount of 1 mL, and subjected to measurement of radioactivity count with an autowell gamma system (Type: ARC-301B, manufactured by Aloka). Using the obtained radioactivity count, log Poctanol was calculated in accordance with the equation (2-2).
# [10] = test system: intracerebral amyloid (aggregated Aβ1-42 injected into amygdaloid nucleus); assay: Confirmation of imaging of amyloid in brain (ex vivo autoradiogram), Examples II-12 and II-13; design: species or system male Wistar rat; settings: for radioactive accumulation at sites other than amyloid injected sites: autoradiogram, 60 minutes after tail vein injection; for accumulation of radioactivity in amygdaloid nucleus on the side to which the physiological saline solution was injected: brain slice 60 minutes after tail vein injection
# Procedure: (§1) The same procedures as in Example II-12 were performed except using a 10 mg/mL solution of Compound II-2 in ascorbic acid (the radioactive concentration of the sample solution was 25 MBq/mL).
# [11] = molecular target: T2, intracerebral amyloid (aggregated Aβ1-42 injected into amygdaloid nucleus); assay: as above; design: species or system male Wistar rat; settings: brain slice 60 minutes after tail vein injection
# Procedure: as §1
# [12] = rats, [11C]-labeled; cited from earlier work
# [13] = Transferability into brain and clearance, Examples II-22 to II-23; type: in vivo, male Wistar rats; settings: rats, intravenous injection, Table 2-7
# Procedure: 0.05 mL each of the prepared sample solutions was injected under thiopental anesthesia into the tail vein of the respective Wistar rat (7-week old). The rats were sacrificed by bleeding from abdominal artery, and brains were removed and subjected to measurement of mass of brains and further subjected to measurement of radioactivity (hereinafter referred to as A in this Example) with a single channel analyzer (detector type SP-20 manufactured by OHYO KOKEN KOGYO Co., Ltd.) 2, 5, 30, and 60 minutes after the injection. Further, the radioactivity level of the rest of the whole body was measured in the same manner as above (hereinafter referred to as B in this Example). Using these measurement results, radioactive distribution per unit weight of brain (% ID/g) at the respective time points were calculated in accordance with the following formula (2-5).
# as §9
# [14] = Partition coefficient based on the octanol extraction method, Examples II-20 to II-21; type: physicochemical; settings: octanol / 10 mmol/L phosphate buffer (pH 7.4); Table 2-6
# Procedure: To 2 mL of octanol, 10 μL each of the prepared sample solution was added, and 2 mL of 10 mmol/L phosphate buffer (pH 7.4) was further added, followed by stirring for 30 seconds. After the mixture was centrifuged with a low-speed centrifuge (2000 rpm×60 min.), the octanol layer and the water layer were sampled each in an amount of 1 mL, and subjected to measurement of radioactivity count with an autowell gamma system (Type: ARC-301B, manufactured by Aloka). Using the obtained radioactivity count, log Poctanol was calculated in accordance with the equation (2-4).
# [15] = test system: intracerebral amyloid (aggregated Aβ1-42 injected into amygdaloid nucleus); assay: Confirmation of imaging of amyloid in brain (ex vivo autoradiogram), Examples II-24 to II-25; design: species or system male Wistar rat; settings: for accumulation of radioactivity at sites other than the site to which amyloid was injected: autoradiogram, 60 minutes after tail vein injection; for accumulation of radioactivity in amygdaloid nucleus on the side to which the physiological saline solution was injected: brain slice 60 minutes after tail vein injection
# Procedure: as §3, §4, §5
# [16] = molecular target: T2, intracerebral amyloid (aggregated Aβ1-42 injected into amygdaloid nucleus); assay: as above; design: species or system male Wistar rat; settings: brain slice 60 minutes after tail vein injection
# Procedure: as §3, §4, §5
# [17] = molecular target: T4, amyloid (aggregated Aβ1-40) (Homo sapiens, UniProt P05067); assay: Measurement of binding to amyloid (radiolabelled compound, glass fiber filtration); settings: amyloid 2.5-1000 nmol/L, 22° C., 3 hours
# T4 construct: Aβ1-40 (Peptide Institute, INC.) was dissolved in phosphate buffer (pH 7.4); purchased Peptide Institute, INC
# Procedure: (7) A relation between the amount of the Compound I-6 binding to amyloid and the amount of added amyloid was evaluated from the measurement results of (6). Unspecific binding was determined using a sample to which the Compound I-2 (non-RI labeled compound) was added to become 100 nM (at a final concentration) above in (4) (Example I-7).
# (8) Using [^125I]-IMPY synthesized in the above Reference Example I-6, the same procedure as the above (2) to (6) were carried out to obtain control data (Comparative Example I-1).
# A relation between the concentration of amyloid in the sample solution and the radioactive count on the glass fiber filter measured above in (6) is shown in FIG. 1-11. The radioactivity on the glass fiber was increased proportionally to the concentration (addition amount) of amyloid (Example I-7). […] Therefore, the radioactive count on the glass fiber is a value reflecting the amount of the compound attached to amyloid, and the slope of the graph which plotted the radioactive count relative to the concentration of amyloid is a value which can be an index representing the intensity of binding to amyloid.
# T2 sequence (P05067 672-713): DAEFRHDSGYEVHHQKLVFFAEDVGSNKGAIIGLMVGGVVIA
# T1 sequence (P05067 672-713 limits assumed): as the sequence (P05067 672-713) above
# T4 sequence (P05067 672-711 limits assumed): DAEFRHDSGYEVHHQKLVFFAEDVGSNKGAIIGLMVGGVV
# T3 sequence (P05067 672-711): as the sequence (P05067 672-711 limits assumed) above
compound,measurement,setting,value
"OCCOc1ccc(-c2cn3cc(I)ccc3n2)cc1 [Compound II-3, 2-[4′-(2″-hydroxyethoxy)phenyl]-6-iodoimidazo[1,2-a]pyridine]",IC50,[1],< 100 nM
"FCCOc1ccc(-c2cn3cc([123I])ccc3n2)cc1 [Compound I-9, 2-[4′-(2″-fluoroethoxy)phenyl]-6-[^123I]iodoimidazo[1,2-a]pyridine]","Radioactive distribution in brain per unit weight, After 2 min.",[2]; 2 min.,0.72 % ID/g
same,"Radioactive distribution in brain per unit weight, After 5 min.",[2]; 5 min.,0.49 % ID/g
same,"Radioactive distribution in brain per unit weight, After 30 min.",[2]; 30 min.,0.07 % ID/g
same,"Radioactive distribution in brain per unit weight, After 60 min.",[2]; 60 min.,0.02 % ID/g
same,accumulation of radioactivity at sites other than the sites to which amyloid was injected,"[3]; autoradiogram, 60 minutes after tail vein injection",little accumulation of radioactivity
same,accumulation of radioactivity in amygdaloid nucleus on the side to which the physiological saline solution was injected,[3]; brain slice 60 minutes after tail vein injection,no significant accumulation of radioactivity
same,accumulation of radioactivity in amygdaloid nucleus on the side to which the amyloid suspension was injected,[4],marked accumulation of radioactivity
"FCCCOc1ccc(-c2cn3cc([123I])ccc3n2)cc1 [Compound I-7, 2-[4′-(3″-fluoropropoxy)phenyl]-6-[^123I]iodoimidazo[1,2-a]pyridine]",accumulation of radioactivity in amygdaloid nucleus on the side to which the physiological saline solution was injected,[5],no significant accumulation of radioactivity
same,accumulation of radioactivity in amygdaloid nucleus on the side to which the amyloid suspension was injected,[6],marked accumulation of radioactivity
same,"Radioactive distribution in brain per unit weight, After 2 min.",[7]; 2 min.,1.10 % ID/g
same,"Radioactive distribution in brain per unit weight, After 5 min.",[7]; 5 min.,0.75 % ID/g
same,"Radioactive distribution in brain per unit weight, After 30 min.",[7]; 30 min.,0.12 % ID/g
same,"Radioactive distribution in brain per unit weight, After 60 min.",[7]; 60 min.,0.05 % ID/g
"OCCOc1ccc(-c2cn3cc([123I])ccc3n2)cc1 [Compound II-1, 2-[4′-(2″-hydroxyethoxy)phenyl]-6-[^123I]iodoimidazo[1,2-a]pyridine]","Radioactive distribution in brain per unit weight, After 2 min.",[8],0.90 % ID/g
same,"Radioactive distribution in brain per unit weight, After 5 min.",[8],0.52 % ID/g
same,"Radioactive distribution in brain per unit weight, After 30 min.",[8],0.06 % ID/g
same,"Radioactive distribution in brain per unit weight, After 60 min.",[8],0.01 % ID/g
same,logPoctanol value,[9],1.8
same,radioactive accumulation at sites other than amyloid injected sites,[10],little radioactive accumulation at the sites other than amyloid injected sites
same,accumulation of radioactivity in amygdaloid nucleus on the side to which the physiological saline solution was injected,[10],no significant accumulation of radioactivity
same,accumulation of radioactivity in amygdaloid nucleus on the side to which the amyloid suspension was injected,[11],marked accumulation of radioactivity
"Nc1c(/N=N/c2ccc(-c3ccc(/N=N/c4cc(S(=O)(=O)O)c5ccccc5c4N)cc3)cc2)cc(S(=O)(=O)O)c2ccccc12 [Congo Red, reference compound]",IC50,[1],> 1000 nM
"CNc1ccc(/C=C/c2ccc(O)cc2)cc1 [SB-13, (E)-4-methylamino-4′-hydroxystilbene]",clearance from normal tissues,[12],it cannot be said that the clearance is sufficiently fast
"OCCOc1cccc(-c2cn3cc([123I])ccc3n2)c1 [Compound II-4, 2-[3′-(2″-hydroxyethoxy)phenyl]-6-[^123I]iodoimidazo[1,2-a]pyridine]","Radioactive distribution in brain per unit weight, After 2 min.",[13],0.56 % ID/g
same,"Radioactive distribution in brain per unit weight, After 5 min.",[13],0.28 % ID/g
same,"Radioactive distribution in brain per unit weight, After 30 min.",[13],0.04 % ID/g
same,"Radioactive distribution in brain per unit weight, After 60 min.",[13],0.01 % ID/g
same,logPoctanol value,[14],2.5
same,accumulation of radioactivity at sites other than the site to which amyloid was injected,[15],little accumulation of radioactivity
same,accumulation of radioactivity in amygdaloid nucleus on the side to which the physiological saline solution was injected,[15],no significant accumulation of radioactivity
same,accumulation of radioactivity in amygdaloid nucleus on the side to which the amyloid suspension was injected,[16],marked accumulation of radioactivity
"FCCCOc1ccc(-c2cn3cc([125I])ccc3n2)cc1 [Compound I-6, 2-[4′-(3″-fluoropropoxy)phenyl]-6-[^125I]iodoimidazo[1,2-a]pyridine]",slope of radioactive count on the glass fiber relative to the concentration of amyloid (index of intensity of binding to amyloid),[17],greater than the slope for [^125I]-IMPY
"OCCCOc1ccc(-c2cn3cc([123I])ccc3n2)cc1 [Compound II-6, 2-[4′-(3″-hydroxypropoxy)phenyl]-6-[^123I]iodoimidazo[1,2-a]pyridine]","Radioactive distribution in brain per unit weight, After 2 min.",[13],0.81 % ID/g
same,"Radioactive distribution in brain per unit weight, After 5 min.",[13],0.56 % ID/g
same,"Radioactive distribution in brain per unit weight, After 30 min.",[13],0.07 % ID/g
same,"Radioactive distribution in brain per unit weight, After 60 min.",[13],0.02 % ID/g
same,logPoctanol value,[14],2.1
same,accumulation of radioactivity at sites other than the site to which amyloid was injected,[15],little accumulation of radioactivity
same,accumulation of radioactivity in amygdaloid nucleus on the side to which the physiological saline solution was injected,[15],no significant accumulation of radioactivity
same,accumulation of radioactivity in amygdaloid nucleus on the side to which the amyloid suspension was injected,[16],marked accumulation of radioactivity
"CCOc1ccc(-c2cn3cc([123I])ccc3n2)cc1 [Compound II-2, 2-(4′-ethoxyphenyl)-6-[^123I]iodoimidazo[1,2-a]pyridine]","Radioactive distribution in brain per unit weight, After 2 min.",[8],0.89 % ID/g
same,"Radioactive distribution in brain per unit weight, After 5 min.",[8],0.66 % ID/g
same,"Radioactive distribution in brain per unit weight, After 30 min.",[8],0.13 % ID/g
same,"Radioactive distribution in brain per unit weight, After 60 min.",[8],0.04 % ID/g
same,logPoctanol value,[9],2.1
same,radioactive accumulation at sites other than amyloid injected sites,[10],"some radioactive accumulation in sites other than amyloid injected sites, but the accumulation was highly suppressed as compared to ^123I-IMPY"
same,accumulation of radioactivity in amygdaloid nucleus on the side to which the physiological saline solution was injected,[10],no significant accumulation of radioactivity
same,accumulation of radioactivity in amygdaloid nucleus on the side to which the amyloid suspension was injected,[11],marked accumulation of radioactivity

# Reference: US8506930B2, “Compounds having affinity for amyloid” (Nihon Medi-Physics Co., Ltd., priority 2006, dated 2013)
